Experimental data from US12286389B2, “Crystalline form a of 2, 2-bis(4-fluorophenyl)-2-phenylacetamide and preparation method therefor and application thereof” (SHENZHEN RENTAI PHARMATECH LTD., priority 2019, dated 2025).

Columns and labels:
Type in all cases: physicochemical
[1] = Light stability of the crystal form (XRPD comparison with day 0); conditions: 25° C., 4500 Lux, XRPD vs day 0
Method: (1) Light stability: the test sample is placed in an environment having a temperature of 25° C. and a light condition of 4500 Lux for 5 days and 10 days, respectively, to test the stability of the crystal form, which are compared with XRPD pattern of the crystal form A on day 0.
(1) Light stability: by referring to the same method of light stability test for crystal A, the test sample is placed in an environment having a temperature of 25° C. and a light condition of 4500 Lux for 5 days to test the stability of the crystal form, which is compared with XRPD pattern of the crystal form I on day 0.

[2] = High-humidity stability 1 of the crystal form (XRPD comparison with day 0); conditions: 92.5% RH, 25° C., XRPD vs day 0
Method: (§1) (3) High-humidity stability 1: the test sample is placed in an environment having a humidity of 92.5% RH and a temperature of 25° C. for 5 days and 10 days, respectively, to test the stability of the crystal form, which are compared with XRPD pattern of the crystal form A on day 0.
as §1, with “1: by referring to the same method of high-humidity stability test 1 for crystal A,” for “1:”, “days” for “days and 10 days, respectively,”, “I” for “A”

[3] = Hygroscopicity study by dynamic vapor sorption (DVS); conditions: 25° C., RH 10% per step, 10 min per step
Method: Dynamic Vapor Sorption DVS
Model: DVS intrinsic (SMS, British);
Method: 25° C., relative humidity is stepped up at a rate of 10%, the judgment standard is change in moisture content is <0.02% over a 10-minute period.
Dynamic vapor sorption (DVS) experiment are performed for crystal form A in Example 2 to obtain DVS curves under the following conditions: the temperature is 25° C., the relative humidity (RH) is stepped up from RH 0 to RH 90% at a rate of RH 10% per step, with 10 min for each step to reach equilibrium.

[4] = High-humidity stability 2 of the crystal form (XRPD comparison with day 0); conditions: 75% RH, 40° C., XRPD vs day 0
Method: (§2) (4) High-humidity stability 2: the test sample is placed in an environment having a humidity of 75% RH and a temperature of 40° C. for 5 days and 10 days, respectively, to test the stability of the crystal form, which are compared with XRPD pattern of the crystal form A on day 0.
as §2, with “2: by referring to the same method of high-humidity stability test 2 for crystal A,” for “2:”, “days” for “days and 10 days, respectively,”, “I” for “A”

[5] = High-temperature stability of the crystal form (XRPD comparison with day 0); conditions: 60° C., XRPD vs day 0
Method: (2) High-temperature stability: the test sample is placed at a temperature of 60° C. for 5 days and 10 days, respectively, to test the stability of the crystal form, which are compared with XRPD pattern of the crystal form A on day 0.
(2) High-temperature stability: by referring to the same method of high-temperature stability test for crystal A, the test sample is placed at a temperature of 60° C. for 5 days to test the stability of the crystal form, which is compared with XRPD pattern of the crystal form I on day 0.

Row | light stability of the crystal form ([1]; 5 days and 10 days) | high-humidity stability 1 of the crystal form ([2]; 5 days and 10 days) | weight change in each step of 10 min [3] | high-humidity stability 2 of the crystal form ([4]; 5 days and 10 days) | high-temperature stability of the crystal form ([5]; 5 days and 10 days) | Compound | light stability of the crystal form ([1]; 5 days) | high-humidity stability 1 of the crystal form ([2]; 5 days) | high-humidity stability 2 of the crystal form ([4]; 5 days) | high-temperature stability of the crystal form ([5]; 5 days)
1 | good light stability | good high-humidity stability | less than 0.02% | good high-humidity stability | good high-temperature stability | NC(=O)C(c1ccccc1)(c1ccc(F)cc1)c1ccc(F)cc1 [crystal form A, 2,2-bis(4-fluorophenyl)-2-phenylacetamide] |  |  |  | 
2 |  |  |  |  |  | NC(=O)C(c1ccccc1)(c1ccc(F)cc1)c1ccc(F)cc1 [crystal form I, 2,2-bis(4-fluorophenyl)-2-phenylacetamide, reference compound] | unstable under lights and easily transforms into crystal form A | unstable under high humidity and easily transforms into crystal form A | unstable under high humidity and easily transforms into crystal form A | unstable under high temperatures and easily transforms into crystal form A
